Measured values from PubChem BioAssay AID1918938 (Molecular Pharmacology Branch, DTP, NCI, 2023).

System: 556581-035-R-J1-PDC complex spheroid viability
Experiment: Anticancer human tumor 556581-035-R-J1-PDC patient-derived ovarian carcinoma cell line growth inhibition
Settings: for IC50: curve of first compound; for viability, T/C: stronger effect = lower value
How it was run: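 Complex spheroids of tumor cells with HUVEC and human MSCs, exposed to iadademstat combined with other agents. Each agent tested in half-log steps from near clinical Cmax (else 10 microM top), DMSO ≤0.25%.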

[1] = second compound 0.1 µM, first compound 0.000316 µM
[2] = second compound 0.1 µM, first compound 0.001 µM
[3] = second compound 0.1 µM, first compound 0.00316 µM
[4] = second compound 0.1 µM, first compound 0.01 µM
[5] = second compound 0.1 µM, first compound 0.0316 µM
[6] = second compound 0.1 µM, first compound 0.1 µM
[7] = second compound 0.316 µM, first compound 0.000316 µM
[8] = second compound 0.316 µM, first compound 0.001 µM
[9] = second compound 0.316 µM, first compound 0.00316 µM
[10] = second compound 0.316 µM, first compound 0.01 µM
[11] = second compound 0.316 µM, first compound 0.0316 µM
[12] = second compound 0.316 µM, first compound 0.1 µM
[13] = second compound 1 µM, first compound 0.000316 µM
[14] = second compound 1 µM, first compound 0.001 µM
[15] = second compound 1 µM, first compound 0.00316 µM
[16] = second compound 1 µM, first compound 0.01 µM
[17] = second compound 1 µM, first compound 0.0316 µM
[18] = second compound 1 µM, first compound 0.1 µM
[19] = second compound 3.16 µM, first compound 0.000316 µM
[20] = second compound 3.16 µM, first compound 0.001 µM
[21] = second compound 3.16 µM, first compound 0.00316 µM
[22] = second compound 3.16 µM, first compound 0.01 µM
[23] = second compound 3.16 µM, first compound 0.0316 µM
[24] = second compound 3.16 µM, first compound 0.1 µM
[25] = second compound 10 µM, first compound 0.000316 µM
[26] = second compound 10 µM, first compound 0.001 µM
[27] = second compound 10 µM, first compound 0.00316 µM
[28] = second compound 10 µM, first compound 0.01 µM
[29] = second compound 10 µM, first compound 0.0316 µM
[30] = second compound 10 µM, first compound 0.1 µM
[31] = second compound 0.1 µM, first compound 0.00949 µM
[32] = second compound 0.1 µM, first compound 0.03 µM
[33] = second compound 0.1 µM, first compound 0.0949 µM
[34] = second compound 0.1 µM, first compound 0.3 µM
[35] = second compound 0.1 µM, first compound 0.949 µM
[36] = second compound 0.1 µM, first compound 3 µM
[37] = second compound 0.316 µM, first compound 0.00949 µM
[38] = second compound 0.316 µM, first compound 0.03 µM
[39] = second compound 0.316 µM, first compound 0.0949 µM
[40] = second compound 0.316 µM, first compound 0.3 µM
[41] = second compound 0.316 µM, first compound 0.949 µM
[42] = second compound 0.316 µM, first compound 3 µM
[43] = second compound 1 µM, first compound 0.00949 µM
[44] = second compound 1 µM, first compound 0.03 µM
[45] = second compound 1 µM, first compound 0.0949 µM
[46] = second compound 1 µM, first compound 0.3 µM
[47] = second compound 1 µM, first compound 0.949 µM
[48] = second compound 1 µM, first compound 3 µM
[49] = second compound 3.16 µM, first compound 0.00949 µM
[50] = second compound 3.16 µM, first compound 0.03 µM
[51] = second compound 3.16 µM, first compound 0.0949 µM
[52] = second compound 3.16 µM, first compound 0.3 µM
[53] = second compound 3.16 µM, first compound 0.949 µM
[54] = second compound 3.16 µM, first compound 3 µM
[55] = second compound 10 µM, first compound 0.00949 µM
[56] = second compound 10 µM, first compound 0.03 µM
[57] = second compound 10 µM, first compound 0.0949 µM
[58] = second compound 10 µM, first compound 0.3 µM
[59] = second compound 10 µM, first compound 0.949 µM
[60] = second compound 10 µM, first compound 3 µM
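Also: spheroids exposed to agents for seven days.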
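For viability, T/C in this document: 100% = DMSO vehicle control wells.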

CC(C)CC(NC(=O)C(Cc1ccccc1)NC(=O)c1cnccn1)B(O)O (stereo not given) + NC1CCC(NC2CC2c2ccccc2)CC1
IC50 (second compound 0.1 µM): < 0.316 nM
IC50 (second compound 0.316 µM): < 0.316 nM
IC50 (second compound 1 µM): < 0.316 nM
IC50 (second compound 3.16 µM): < 0.316 nM
IC50 (second compound 10 µM): < 0.316 nM
viability, T/C [1]: 7.87%
viability, T/C [2]: 0.11%
viability, T/C [3]: 0.13%
viability, T/C [4]: 0.13%
viability, T/C [5]: 0.08%
viability, T/C [6]: 0.24%
viability, T/C [7]: 7.18%
viability, T/C [8]: 0.45%
viability, T/C [9]: 0.63%
viability, T/C [10]: 0.39%
viability, T/C [11]: 0.44%
viability, T/C [12]: 1.89%
viability, T/C [13]: 11.7%
viability, T/C [14]: 0.44%
viability, T/C [15]: 0.91%
viability, T/C [16]: 0.17%
viability, T/C [17]: 0.08%
viability, T/C [18]: 0.43%
viability, T/C [19]: 7.91%
viability, T/C [20]: 0.49%
viability, T/C [21]: 0.13%
viability, T/C [22]: 0.07%
viability, T/C [23]: 0.75%
viability, T/C [24]: 0.19%
viability, T/C [25]: 5.64%
viability, T/C [26]: 0.22%
viability, T/C [27]: 0.25%
viability, T/C [28]: 0.49%
viability, T/C [29]: 0.46%
viability, T/C [30]: 0.24%

CC(C)CC(NC(=O)CNC(=O)c1cc(Cl)ccc1Cl)B1OC(=O)CC(CC(=O)O)(C(=O)O)O1 (stereo not given) + NC1CCC(NC2CC2c2ccccc2)CC1
IC50 (second compound 0.1 µM): 4.01 nM
IC50 (second compound 0.316 µM): 4.35 nM
IC50 (second compound 1 µM): 4.48 nM
IC50 (second compound 3.16 µM): 4.6 nM
IC50 (second compound 10 µM): 3.25 nM
viability, T/C [1]: 90.7%
viability, T/C [2]: 99.5%
viability, T/C [3]: 62.3%
viability, T/C [4]: 3.38%
viability, T/C [5]: 0.24%
viability, T/C [6]: 0.3%
viability, T/C [7]: 95.5%
viability, T/C [8]: 93.4%
viability, T/C [9]: 67.6%
viability, T/C [10]: 4.37%
viability, T/C [11]: 0.84%
viability, T/C [12]: 0.84%
viability, T/C [13]: 86.2%
viability, T/C [14]: 88%
viability, T/C [15]: 69.7%
viability, T/C [16]: 4.47%
viability, T/C [17]: 0.33%
viability, T/C [18]: 0.17%
viability, T/C [19]: 91.3%
viability, T/C [20]: 86%
viability, T/C [21]: 72.4%
viability, T/C [22]: 3.59%
viability, T/C [23]: 0.33%
viability, T/C [24]: 0.6%
viability, T/C [25]: 72.3%
viability, T/C [26]: 90.1%
viability, T/C [27]: 51.2%
viability, T/C [28]: 2.53%
viability, T/C [29]: 0.48%
viability, T/C [30]: 0.7%

Nc1ccccc1NC(=O)c1ccc(CNC(=O)OCc2cccnc2)cc1 + NC1CCC(NC2CC2c2ccccc2)CC1
IC50 (second compound 0.1 µM): 124 nM
IC50 (second compound 0.316 µM): 103 nM
IC50 (second compound 1 µM): 111 nM
IC50 (second compound 3.16 µM): 69.9 nM
IC50 (second compound 10 µM): 32.2 nM
viability, T/C [31]: 82.9%
viability, T/C [32]: 74.9%
viability, T/C [33]: 56.4%
viability, T/C [34]: 28.5%
viability, T/C [35]: 17.6%
viability, T/C [36]: 1.21%
viability, T/C [37]: 77.4%
viability, T/C [38]: 66.9%
viability, T/C [39]: 53.4%
viability, T/C [40]: 28.7%
viability, T/C [41]: 15.9%
viability, T/C [42]: 1.67%
viability, T/C [43]: 69%
viability, T/C [44]: 71.6%
viability, T/C [45]: 49.6%
viability, T/C [46]: 32.1%
viability, T/C [47]: 17.1%
viability, T/C [48]: 0.88%
viability, T/C [49]: 79.5%
viability, T/C [50]: 61.3%
viability, T/C [51]: 47.6%
viability, T/C [52]: 26.4%
viability, T/C [53]: 18.2%
viability, T/C [54]: 1.11%
viability, T/C [55]: 74%
viability, T/C [56]: 49%
viability, T/C [57]: 35.8%
viability, T/C [58]: 17%
viability, T/C [59]: 9.24%
viability, T/C [60]: 0.63%

O=C(C=Cc1cccc(S(=O)(=O)Nc2ccccc2)c1)NO + NC1CCC(NC2CC2c2ccccc2)CC1
IC50 (second compound 0.1 µM): 108 nM
IC50 (second compound 0.316 µM): 87 nM
IC50 (second compound 1 µM): 76.3 nM
IC50 (second compound 3.16 µM): 92.8 nM
IC50 (second compound 10 µM): 39.6 nM
viability, T/C [31]: 85.6%
viability, T/C [32]: 78.4%
viability, T/C [33]: 51.1%
viability, T/C [34]: 26.1%
viability, T/C [35]: 1.81%
viability, T/C [36]: 0.24%
viability, T/C [37]: 87.7%
viability, T/C [38]: 74.3%
viability, T/C [39]: 42.9%
viability, T/C [40]: 31.7%
viability, T/C [41]: 3.05%
viability, T/C [42]: 0.34%
viability, T/C [43]: 97.2%
viability, T/C [44]: 65.7%
viability, T/C [45]: 50.4%
viability, T/C [46]: 24.6%
viability, T/C [47]: 2.56%
viability, T/C [48]: 0.21%
viability, T/C [49]: 77.9%
viability, T/C [50]: 73.1%
viability, T/C [51]: 47.9%
viability, T/C [52]: 22%
viability, T/C [53]: 2.44%
viability, T/C [54]: 0.16%
viability, T/C [55]: 74.2%
viability, T/C [56]: 51.7%
viability, T/C [57]: 37.6%
viability, T/C [58]: 23%
viability, T/C [59]: 1.28%
viability, T/C [60]: 0.28%

O=C(c1cc(Cc2n[nH]c(=O)c3ccccc23)ccc1F)N1CCN(C(=O)C2CC2)CC1 + NC1CCC(NC2CC2c2ccccc2)CC1
IC50 (second compound 0.1 µM): > 10000 nM
IC50 (second compound 0.316 µM): > 10000 nM
IC50 (second compound 1 µM): > 10000 nM
IC50 (second compound 3.16 µM): > 10000 nM
IC50 (second compound 10 µM): > 10000 nM
viability, T/C [5]: 85.8%
viability, T/C [6]: 93.2%
viability, T/C (second compound 0.1 µM, first compound 0.316 µM): 91.7%
viability, T/C (second compound 0.1 µM, first compound 1 µM): 85.3%
viability, T/C (second compound 0.1 µM, first compound 3.16 µM): 83.9%
viability, T/C (second compound 0.1 µM, first compound 10 µM): 65%
viability, T/C [11]: 87.2%
viability, T/C [12]: 93.7%
viability, T/C (second compound 0.316 µM, first compound 0.316 µM): 90.7%
viability, T/C (second compound 0.316 µM, first compound 1 µM): 86%
viability, T/C (second compound 0.316 µM, first compound 3.16 µM): 62.8%
viability, T/C (second compound 0.316 µM, first compound 10 µM): 65.8%
viability, T/C [17]: 77.4%
viability, T/C [18]: 84.4%
viability, T/C (second compound 1 µM, first compound 0.316 µM): 83.6%
viability, T/C (second compound 1 µM, first compound 1 µM): 78.6%
viability, T/C (second compound 1 µM, first compound 3.16 µM): 72.6%
viability, T/C (second compound 1 µM, first compound 10 µM): 61.3%
viability, T/C [23]: 74.5%
viability, T/C [24]: 73.9%
viability, T/C (second compound 3.16 µM, first compound 0.316 µM): 77.6%
viability, T/C (second compound 3.16 µM, first compound 1 µM): 66.3%
viability, T/C (second compound 3.16 µM, first compound 3.16 µM): 58.1%
viability, T/C (second compound 3.16 µM, first compound 10 µM): 66.5%
viability, T/C [29]: 74.2%
viability, T/C [30]: 77.5%
viability, T/C (second compound 10 µM, first compound 0.316 µM): 69%
viability, T/C (second compound 10 µM, first compound 1 µM): 69.4%
viability, T/C (second compound 10 µM, first compound 3.16 µM): 58.7%
viability, T/C (second compound 10 µM, first compound 10 µM): 55.9%
